Test results reported in patent US20110230431A1, “FOSFOMYCIN/TOBRAMYCIN COMBINATIONS FOR THE TREATMENT AND PREVENTION OF OPHTHALMIC, OTOLOGICAL AND DERMATOLOGICAL INFECTIONS” (Gilead Sciences, Inc., priority 2008, published 2011).
Like-named read-outs stand apart in the source and are kept apart here.

Columns and labels:
E. coli [1] = assay: MIC by agar plate dilution method (CLSI); assay type: cell-based, Escherichia coli
Source text: P. aeruginosa strains isolated from patients with cystic fibrosis (CF) were obtained from Children's Hospital and Regional Medical Center (Seattle, Wash.). Clinical isolates of Escherichia coli and Staphylococcus aureus were obtained from The Jones Group Laboratories (JMI; North Liberty, Iowa) and The Clinical Microbiology Institute (CMI; Wilsonville, Oreg.). P. aeruginosa 27853, S. aureus 29213, and E. coli 25922 served as quality control strains^1 and were obtained from The America Type Culture Collection (ATCC; Manassas, Va.). P. aeruginosa ATCC 27853, a fosfomycin and tobramycin susceptible strain, was used in macromolecular biosynthesis and tobramycin uptake experiments. Stock cultures were maintained at −80° C. in Cation-Adjusted Mueller-Hinton Broth (CAMHB) (Remel; Lenexa, Kans.) supplemented with 20% glycerol (VWR: West Chester, Pa.). Cultures for routine use were grown on tryptic soy agar plates+5% sheeps blood (PML Microbiologicals Inc.; Wilsonville, Oreg.) and stored at 4° C.
MICs were determined by the agar plate dilution method according to CLSI guidelines (National Committee for Clinical Laboratory Standards. M7-A6. 6th ed. Villanova (Pa.): NCCLS, 2003; M100-S14. Villanova (Pa.): NCCLS, 2004).

S. aureus = assay type: cell-based, Staphylococcus aureus
Experimental: (§1) Development of resistance after a single exposure to antibiotic was determined for both clinical and reference isolates of P. aeruginosa, S. aureus, and E. coli. Late Log-phase cultures were centrifuged at 1,400×g at room temperature for 20 min and the cell pellets resuspended in CAMHB. […] The culture plates were incubated at 37° C. for 48 h and the number of colonies on each plate was enumerated manually. The spontaneous mutation frequency (SMF) resulting in antibiotic resistance was calculated by dividing the number of bacteria growing at the defined antibiotic concentration by the number of bacteria in the inoculum (Martinex, J L, Antimicrob Agents Chemother 2000; 44 (1):1771-1777).

E. coli [2] = assay type: cell-based, Escherichia coli
Experimental: as §1

[3] = tested on: Protein Synthesis in P. aeruginosa ATCC 27853; assay: Macromolecular biosynthesis: 3H-amino acid incorporation; assay type: cell-based, Pseudomonas aeruginosa; settings: for % Inhibition Protein: at 2 h relative to no-drug control, single experiment
Experimental: (§2) Picataway, N.J.) and N-acetyl-D-Glucosamine (^3H-NAG) (GE Healthcare Bio-Sciences), respectively (Baum, E Z, Antimicrob Agents Chernother 2001; 45 (11): 3182-3188). A single colony of P. aeruginosa ATCC 27853 was inoculated into 10 mL of CAMHB and incubated for 16 h, at 37° C., 200 rpm in a shaking water bath. […] At various time points, 100 μl aliquots (triplicate) of culture were removed and added to 100 μl of 20% TCA (VWR) in 96-well flat bottom trays (VWR). Plates were incubated on crushed ice for 60 min to precipitate the incorporated ^3H-precursors. Samples were harvested onto glass fibre filters (GFC) (PerkinElmer; Waltham, Mass.). Filters were washed two times with 35 mL of normal saline to remove unincorporated isotope followed by one wash with 35 mL of 90% ETOH (VWR). Filters were dried under a lamp for 1 h to reduce remaining moisture and then sealed in bags containing 5 mL of scintillation cocktail (Betaplate Scint; PerkinElmer). Counts per minute (CPM) were determined using a Wallac MicroBeta Trilux (PerkinElmer). Mean CPM±standard deviation (SD) were determined for each treatment group. Background counts consisting of a media-only sample were subtracted from the no-drug and antibiotic treatment groups. The percent inhibition of incorporation was determined relative to the no-drug controls. The activities of the three drugs were compared by calculating the time to 50% inhibition (T1/2), and statistical differences at each time point were evaluated by the Analysis of Variance (ANOVA; GraphPad Prisma software package 3.03; GraphPad Software, Inc., San Diego, Calif.). Each curve represents 4 replicate experiments, each time point performed in triplicate.

[4] = tested on: Cell Wall Synthesis in P. aeruginosa ATCC 27853; assay: Macromolecular biosynthesis: 3H-N-acetyl-D-glucosamine incorporation; assay type: cell-based, Pseudomonas aeruginosa; settings: at 2 h relative to no-drug control, single experiment
Experimental: as §2

P. aeruginosa ATCC 27853 = assay: Time-kill experiments in CAMHB with 2% mucin; assay type: cell-based, Pseudomonas aeruginosa
Experimental: Time-kill experiments were performed according to a modified CLSI method (National Committee for Clinical Laboratory Standards. M-26A. Villanova (Pa.): NCCLS, 1999). […] Bacterial cultures and antibiotic(s) were incubated at 37° C. in a shaking water bath (200 rpm) and killing activity assessed at 0, 1, 2, 4, 6 and 24 h. Antibiotics that reduced the original inoculum by ≧3-Log10 were considered bactericidal. Antibiotics that reduced the original inoculum by ≦2-Log10 were considered bacteriostatic.

tobramycin sulfate
MIC (E. coli [1]; E. coli ATCC 25922): 0.5 µg/mL
MIC (E. coli [1]; E. coli C032): 0.5 µg/mL
MIC (E. coli [1]; E. coli C036): 0.5 µg/mL
MIC (E. coli [1]; E. coli C037): 4 µg/mL
MIC (E. coli [1]; E. coli C294): 0.5 µg/mL
Frequency of Resistance 4× MIC (S. aureus; S. aureus ATCC 29213, 4× MIC): 1.6 × 10^−7
Frequency of Resistance 8× MIC (S. aureus; S. aureus ATCC 29213, 8× MIC): 3.9 × 10^−8
Frequency of Resistance 16× MIC (S. aureus; S. aureus ATCC 29213, 16× MIC): <1.8 × 10^−10
Frequency of Resistance 4× MIC (S. aureus; S. aureus C051, 4× MIC): 3.5 × 10^−6
Frequency of Resistance 8× MIC (S. aureus; S. aureus C051, 8× MIC): 1.5 × 10^−8
Frequency of Resistance 16× MIC (S. aureus; S. aureus C051, 16× MIC): <2.0 × 10^−10
Frequency of Resistance 4× MIC (S. aureus; S. aureus C053, 4× MIC): 2.0 × 10^−7
Frequency of Resistance 16× MIC (S. aureus; S. aureus C053, 16× MIC): <2.3 × 10^−10
Frequency of Resistance 4× MIC (S. aureus; S. aureus C055, 4× MIC): 3.8 × 10^−7
Frequency of Resistance 8× MIC (S. aureus; S. aureus C055, 8× MIC): <4.3 × 10^−9
Frequency of Resistance 16× MIC (S. aureus; S. aureus C055, 16× MIC): <2.3 × 10^−10
Frequency of Resistance 4× MIC (S. aureus; S. aureus C057, 4× MIC): 1.1 × 10^−6
Frequency of Resistance 8× MIC (S. aureus; S. aureus C057, 8× MIC): <1.4 × 10^−10
Frequency of Resistance 16× MIC (S. aureus; S. aureus C057, 16× MIC): <3.2 × 10^−10
Frequency of Resistance 4× MIC (E. coli [2]; E. coli ATCC 25922, 4× MIC): 2.5 × 10^−6
Frequency of Resistance 8× MIC (E. coli [2]; E. coli ATCC 25922, 8× MIC): 1.5 × 10^−7
Frequency of Resistance 16× MIC (E. coli [2]; E. coli ATCC 25922, 16× MIC): 8.7 × 10^−8
Frequency of Resistance 4× MIC (E. coli [2]; E. coli C032, 4× MIC): 1.3 × 10^−6
Frequency of Resistance 8× MIC (E. coli [2]; E. coli C032, 8× MIC): 5.5 × 10^−6
Frequency of Resistance 16× MIC (E. coli [2]; E. coli C032, 16× MIC): 6.2 × 10^−7
Frequency of Resistance 4× MIC (E. coli [2]; E. coli C036, 4× MIC): 4.4 × 10^−6
Frequency of Resistance 8× MIC (E. coli [2]; E. coli C036, 8× MIC): 4.7 × 10^−7
Frequency of Resistance 16× MIC (E. coli [2]; E. coli C036, 16× MIC): 1.9 × 10^−9
Frequency of Resistance 4× MIC (E. coli [2]; E. coli C037, 4× MIC): 1.0 × 10^−6
Frequency of Resistance 8× MIC (E. coli [2]; E. coli C037, 8× MIC): 4.4 × 10^−6
Frequency of Resistance 16× MIC (E. coli [2]; E. coli C037, 16× MIC): 1.1 × 10^−7
Frequency of Resistance 4× MIC (E. coli [2]; E. coli C294, 4× MIC): 6.6 × 10^−5
Frequency of Resistance 8× MIC (E. coli [2]; E. coli C294, 8× MIC): 1.3 × 10^−6
Frequency of Resistance 16× MIC (E. coli [2]; E. coli C294, 16× MIC): <7.2 × 10^−9
% Inhibition Protein ([3]; 0.8 μg/mL): 2%
time to 50% inhibition (T1/2) of protein synthesis ([3]; 1.6 μg/mL (FIG. 5)): > 3 h
% Inhibition Protein ([3]; 1.6 μg/mL): 6%
% Inhibition Protein ([3]; 3.2 μg/mL): 42%
% Inhibition Cell Wall ([4]; 0.8 μg/mL): 4%
% Inhibition Cell Wall ([4]; 1.6 μg/mL): 10%
% Inhibition Cell Wall ([4]; 3.2 μg/mL): 36%
killing activity at 24 h (P. aeruginosa ATCC 27853; 24 h, FT4:1 16 μg/mL, fosfomycin 12.8 μg/mL, tobramycin 3.2 μg/mL, mucin, FIG. 4): re-growth of the bacterial culture
killing activity (P. aeruginosa ATCC 27853; FT4:1 at 4×MIC (16 μg/mL), component weights fosfomycin 12.8 μg/mL, tobramycin 3.2 μg/mL, mucin, FIG. 4): bacteriostatic killing
bacterial killing on increasing the concentration (P. aeruginosa ATCC 27853; increase from 2 μg/mL to 4 μg/mL (2-fold), FIG. 2): > 4 Log10
killing activity (bactericidal ≧3-Log10, bacteriostatic ≦2-Log10) (P. aeruginosa ATCC 27853; multiples of the MIC, FIG. 1-3): rapidly bactericidal
enhancement of bacterial killing in the presence of fosfomycin (P. aeruginosa ATCC 27853; tobramycin 3.2 μg/mL in the presence of 12.8 μg/mL fosfomycin, FIG. 4): 3 Log10 CFU/mL
